The test system of test [1] is MOLM-14. Description: MTS cell viability assay. The test is classed as cell-based. Conditions: MOLM-14, ceramides for 24 hours, with CNL. The procedure:
FIG. 4. Ceramide chain length altered biological and biophysical responses. MOLM-14 cells were treated with the indicated ceramides for 24 hours and viability was assessed by MTS.
MTS Cell Viability Assay: Cytotoxicity of nanoliposomal ceramide in AML cells was measured by plating 15,000 cells/well into 96-well plates followed by growth for 24 hours in a humidified 37° C. cell culture incubator in the presence of ghost liposomes, CNL or other drugs for 24 hours in 10% serum medium. After 24 h, MTS/PMS mixture was added and adsorption was read at 560 nm using Bio-Tek plate reader.
Cell viability MTS assays were performed in three AML cells lines: OCI-AML2, KG-1, AND MOLM-14 to determine their sensitivities to co-treatment with CNL, Ara-C, and Venetoclax. Table 1 summarized these cell lines, their sources, and the known driver mutations that are present in the cell lines. The cells lines were treated with concentrations that had been determined to be less than the EC50 so any synergistic or additive effects could be observed.

Test [2] deals with ceramide levels. Description: Lipidomics (LC/MS) of ceramide levels in treated cells. Format: cell-based. Conditions: 24 hrs. An excerpt:
Lipidomics: Lipids were extracted from cell lysates and analyzed on an Acquity I-Class/Xevo TQ-S Micro IVD System (Waters Corporation, Milford, Mass., United States of America) as described previously (Pearson et al. (2020) Ceramide Analogue SACLAC Modulates Sphingolipid Levels and MCL-1 Splicing to Induce Apoptosis in Acute Myeloid Leukemia. Mol Cancer Res 18(3):352-363). Mass spectrometry peaks were compared to internal standards, and all data are represented as picomoles of lipid per milligram of protein.
To determine potential metabolic mechanism underlying the efficacy of combinatorial CNL/AraC/Venetoclax (CAV) treatment, lipids were harvested to measure the effect of Venetoclax and AraC upon CNL metabolism by LC/MS. Cells were treated individually or in combination with CNL, Ara-C, and/or Venetoclax for 24 hrs. […] This lead to an increase in the C16/C24 ratio, which might support a pro-mitogenic response (FIG. 6H).

Test [3] deals with Mcl-1. Kind of test: Western blot of treated MOLM-14 cells. Format: cell-based. Conditions: MOLM-14, 24 hours.
Protocol: After centrifugation for 15 minutes at 13-14000×g at 10° C. supernatants were mixed with one-third of a volume of NUPAGE™ LDS 4× Sample Buffer (Thermo Fisher Scientific) containing 5% 2-mercaptoethanol. Protein samples were prepared by heating at 37° C. for 10 min after the addition of denaturing sample buffer. […] Primary and secondary antibodies were to diluted in 0.05% TBS/Tween-20 containing 0.05% Casein Blocker. Protein bands were visualized using a commercially available chemiluminescence kit (Thermo Fisher Scientific) or by infrared laser scanner using ChemiXX6 G:box imager (Syngene, Frederick, Md., United States of America).
Test [4] deals with C1498 AML cells. Kind of test: Syngeneic C1498-luc AML model in C57BL/6J mice. The test is classed as in vivo, mouse. The procedure:
FIG. 8C: Survival of C1498-bearing C57BL/6J mice were treated with either Control (Lip-Ghost), CNL (31.2 mg/kg), Cytarabine (75 mg/kg) or CNL+Cytarabine.
We initially utilized the immune-compromised NRG mice engrafted with MOLM-13 cells expressing luciferase. Mice were engrafted, treated with the various drug combinations, and disease burden measured by live animal luminescence and Kaplan-Meier curve. […] C1498 cells are a de novo AML cell line from a C57-blkJ mouse. […] Given this, no Venetoclax groups were included. C57-blkJ mice were injected with C1498 AML cells transduced to express luciferase.

Test [5] deals with Survivin. Description: Western blot of treated MOLM-14 cells. The test is classed as cell-based. The settings on record: MOLM-14, 24 hours, independently. The procedure: (§1) FIGS. 7A-7I. CAV treatment alters expression of genes involved in cell survival relevant to AraC and Venetoclax resistance mechanism. MOLM-14 cells were treated with the listed conditions for 24 hours and protein harvested. Western blots were performed and quantitated via densitometry. Representative blots are shown in FIG. 7A and quantification in FIGS. 7B-7I. *: significant to Vehicle.
(§2) Western blotting: Whole cell lysates were prepared by dissolving cells in FOCUS™ Extraction Buffer III (G-Biosciences, St. Louis, Mo., United States of America; Catalog No. 786-222) containing protease inhibitors (Thermo Fisher Scientific Catalog No. A32955) for 10-15 minutes on ice with occasional shaking. After centrifugation for 15 minutes at 13-14000×g at 10° C. supernatants were mixed with one-third of a volume of NUPAGE™ LDS 4× Sample Buffer (Thermo Fisher Scientific) containing 5% 2-mercaptoethanol. Protein samples were prepared by heating at 37° C. for 10 min after the addition of denaturing sample buffer. Proteins were separated using SDS-PAGE on a 4-12% gel (Thermo Fisher Scientific) and transferred to Immobilon membrane (Bio-Rad). […]

Test [6] deals with XIAP. Kind of test: Western blot of treated MOLM-14 cells. Conditions: MOLM-14, 24 hours. The test is classed as cell-based. The procedure: as §1, §2
The test system of test [7] is AML cells. Conditions: recent studies by others; cited from earlier work.

These results are taken from patent US20220362177A1, “CERAMIDE RATIOS AS PREDICTIVE AND THERAPEUTIC BIOMARKERS FOR LEUKEMIAS” (University of Virginia Patent Foundation, priority 2019, published 2022).

Take `CCCCCCCCCCCCC/C=C/[C@@H](O)[C@H](CO)NC(=O)CCCCCCCCCCCCCCC` [C16 ceramide]: the “potentiation of CNL-induced cell death” value in test [1] was “potentiated”.

As to `Nc1ccn([C@@H]2O[C@H](CO)[C@@H](O)[C@@H]2O)c(=O)n1` [AraC, cytarabine], the ceramide levels result is “significantly elevated” in test [2] (single agent) and “raise ceramide levels” in test [2] (with co-treatment of CNL). Further, in test [3], the Mcl-1 expression result is “not”. Further, the median survival time in test [4] (C1498-bearing C57BL/6J mice, CNL 31.2 mg/kg, Cytarabine 75 mg/kg, treated 7 days) is reported as 41 days. Further, the “survival” value in test [4] (C1498 model, single agent) was “moderate increase in survival”. The Survivin expression levels result in test [5] was “increased expression levels”. Moreover, the XIAP expression result in test [6] is reported as “not”.

As to `CCCCCCCCCCCCC/C=C/[C@@H](O)[C@H](CO)NC(=O)CCCCCCCCCCCCCCCCCCCCCCC` [C24 ceramide], the “potentiation of CNL-induced cell death” value in test [1] is given as “not”.

Regarding `CCCCCCCCc1ccc(CCC(N)(CO)CO)cc1` [FTY720], the “apoptosis / death of AML cells” value in test [7] is recorded as “rapidly induced ceramide-mediated apoptosis”.
